In one series the target is HIF-1 (Homo sapiens, UniProt Q16665). The following applies: in vitro; cited from earlier work.
Series [1] deals with choroidal NV at Bruch's membrane rupture sites. In words: Mouse CNV model, intravitreous injection of free ACF or PRF. Conditions: mice, 1 μl intravitreous injection of 50 ng immediately after rupture of Bruch's membrane, read after seven days. It counts as in vivo, C57BL/6 mice. As for the experimental part: Seven days after rupture of Bruch's membrane, mice were euthanized, eyecups were fixed and stained with FITC-labeled Griffonia Simplicifolia lectin (GSA, Vector Laboratories, Burlingame, Calif.), and flat mounted. The area of choroidal NV at each Bruch's membrane rupture site was measured by image analysis by an observer masked with respect to treatment group. The area of choroidal NV at the 3 rupture sites in one eye was averaged to give one experimental value for each animal. […] One week after rupture of Bruch's membrane, choroidal flat mounts were stained with FITC-Griffonia simplicifolia lectin.

For a further series, the target named is HIF-2 (Homo sapiens, UniProt Q99814). Conditions: in vitro; cited from earlier work.
A short description of series [2]: Pharmacokinetics in rats: TRF and PRF in ocular tissues by LC-MS/MS after suprachoroidal PLGA-ACF MPs.
Experimental: The injection site was marked in each eye. Six rats were euthanized at each of the following time points after injection: 1 and 2 weeks, and 1, 2, 3, and 4 months. After removal of the anterior segment and lens of each eye, the retina and RPE/choroid/sclera were dissected and cut in half along the horizontal meridian through the optic nerve head and frozen separately. Samples were analyzed for acriflavine and proflavine by liquid chromatography with tandem mass spectrometry (LC-MS/MS). Tissue samples were homogenized in 200 μl of methanol and homogenized with Next Advance Bullet Blender. The analytes were extracted from 25 μl of homogenized tissue with 250 μl of acetonitrile containing internal standard (5 ng/ml of acridine orange). Samples were centrifuged and the top layer was transferred to an auto sampler vial for LC/MS/MS analysis.
Mobile phase A was water containing 0.1% formic acid and mobile phase B was acetonitrile containing 0.1% formic acid. The gradient started with mobile phase B held at 50% for 1 minute and increased to 100% over 0.5 minutes; 100% mobile phase B was held for 1.5 minutes and then returned back to 50% mobile phase B and allowed to equilibrate for 1 minute. […] The column effluent was monitored using a Sciex 4500 triple quadrupole mass spectrometer with electrospray ionization operating in positive mode. […]

The source of these data is patent US20230081539A1, “SUPRACHOROIDAL DELIVERY OF DRUG PARTICLES TO REDUCE TOXICITY” (The Johns Hopkins University, priority 2020, published 2023).

HIF-2, sequence (Q99814 whole entry): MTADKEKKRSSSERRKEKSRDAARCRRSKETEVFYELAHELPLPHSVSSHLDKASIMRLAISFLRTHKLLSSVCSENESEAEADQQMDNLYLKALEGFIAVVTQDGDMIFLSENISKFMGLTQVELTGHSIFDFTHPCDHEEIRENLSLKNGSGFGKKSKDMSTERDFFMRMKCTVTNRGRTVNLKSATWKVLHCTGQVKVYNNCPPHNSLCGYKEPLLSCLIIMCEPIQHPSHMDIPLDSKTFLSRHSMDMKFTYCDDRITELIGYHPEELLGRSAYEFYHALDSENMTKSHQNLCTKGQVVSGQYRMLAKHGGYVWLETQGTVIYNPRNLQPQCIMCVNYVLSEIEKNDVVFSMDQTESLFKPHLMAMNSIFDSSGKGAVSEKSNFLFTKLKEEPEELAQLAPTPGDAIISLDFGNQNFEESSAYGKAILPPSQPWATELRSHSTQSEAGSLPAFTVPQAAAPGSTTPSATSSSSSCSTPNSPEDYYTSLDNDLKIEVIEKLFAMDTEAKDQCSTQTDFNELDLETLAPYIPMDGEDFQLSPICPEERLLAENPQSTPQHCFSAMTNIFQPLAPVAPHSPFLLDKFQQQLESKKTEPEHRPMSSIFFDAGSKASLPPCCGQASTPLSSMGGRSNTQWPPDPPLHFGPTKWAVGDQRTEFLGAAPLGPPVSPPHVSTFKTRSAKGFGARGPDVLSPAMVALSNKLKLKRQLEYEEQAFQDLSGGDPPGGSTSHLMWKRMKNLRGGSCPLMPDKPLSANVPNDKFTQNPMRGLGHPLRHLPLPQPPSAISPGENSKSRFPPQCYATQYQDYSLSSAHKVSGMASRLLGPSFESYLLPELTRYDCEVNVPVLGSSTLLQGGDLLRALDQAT
HIF-1, sequence (Q16665 whole entry): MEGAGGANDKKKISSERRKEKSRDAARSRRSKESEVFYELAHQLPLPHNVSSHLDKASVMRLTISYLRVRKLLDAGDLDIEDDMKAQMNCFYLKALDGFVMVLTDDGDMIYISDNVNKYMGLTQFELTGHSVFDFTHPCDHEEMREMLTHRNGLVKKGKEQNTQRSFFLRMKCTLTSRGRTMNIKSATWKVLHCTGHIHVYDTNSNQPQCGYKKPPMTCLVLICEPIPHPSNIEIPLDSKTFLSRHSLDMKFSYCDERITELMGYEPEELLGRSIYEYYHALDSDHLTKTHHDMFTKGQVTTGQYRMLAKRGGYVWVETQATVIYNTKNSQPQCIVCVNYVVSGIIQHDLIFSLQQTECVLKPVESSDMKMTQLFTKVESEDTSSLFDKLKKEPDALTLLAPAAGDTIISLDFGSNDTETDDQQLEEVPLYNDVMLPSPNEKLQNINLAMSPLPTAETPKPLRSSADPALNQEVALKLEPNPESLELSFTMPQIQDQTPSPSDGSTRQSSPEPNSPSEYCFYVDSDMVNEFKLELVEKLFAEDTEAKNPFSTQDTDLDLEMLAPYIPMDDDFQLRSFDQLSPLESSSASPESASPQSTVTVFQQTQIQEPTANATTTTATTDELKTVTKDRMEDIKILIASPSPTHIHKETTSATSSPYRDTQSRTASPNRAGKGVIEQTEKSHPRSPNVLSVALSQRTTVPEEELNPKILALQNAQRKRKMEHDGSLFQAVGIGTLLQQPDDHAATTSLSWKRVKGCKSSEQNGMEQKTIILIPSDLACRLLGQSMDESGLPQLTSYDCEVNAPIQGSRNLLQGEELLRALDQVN

Take “3,6-diamino-10-methylacridinium chloride mixed with 3,6-acridinediamine [ACF]”: the “concentration that inhibits the transcriptional activity of HIF-1” value on HIF-1 was “nanomolar”. Also, the “area of CNV at Bruch's membrane rupture sites compared with PBS” value in series [1] is reported as “statistically significant reduction”. The “concentration that inhibits the transcriptional activity of HIF-2” value at HIF-2 is “nanomolar”.

On to `Nc1ccc2cc3ccc(N)cc3nc2c1` [PRF, proflavine], for which the “area of CNV at Bruch's membrane rupture sites compared with PBS” value in series [1] is on record as “almost identical to that of eyes treated with PBS”.

As to `C[n+]1c2cc(N)ccc2cc2ccc(N)cc21.[Cl-]` [TRF, trypaflavine], in series [2] (suprachoroidal PLGA-ACF MPs), the “duration of steady-state levels in the low nM range in RPE/choroid and retina” value is listed as “at least 16 weeks”. Moreover, the “steady-state level in inferior retina” value in series [2] (suprachoroidal PLGA-ACF MPs containing 10 μg ACF, 2 through 16 weeks) is approximately 0.1 nM.

In the case of `C[C@H]1O[C@@H](O[C@H]2[C@@H](O)C[C@H](O[C@H]3[C@@H](O)C[C@H](O[C@H]4CC[C@@]5(C)[C@H](CC[C@@H]6[C@@H]5C[C@@H](O)[C@]5(C)[C@@H](C7=CC(=O)OC7)CC[C@]65O)C4)O[C@@H]3C)O[C@@H]2C)C[C@H](O)[C@@H]1O` [digoxin], the “concentration that inhibits the transcriptional activity of HIF-2” value on HIF-2 was “nanomolar”.

On to `C[C@@H]1O[C@@H](O[C@H]2C[C@@H](O)[C@]3(CO)[C@H]4[C@H](O)C[C@]5(C)[C@@H](C6=CC(=O)OC6)CC[C@]5(O)[C@@H]4CC[C@]3(O)C2)[C@H](O)[C@H](O)[C@H]1O` [ouabain], for which the “concentration that inhibits the transcriptional activity of HIF-2” value at HIF-2 is “nanomolar”.

Consider `C[C@@H]1O[C@@H](O[C@@H]2C=C3CC[C@@H]4[C@H](CC[C@]5(C)[C@@H](c6ccc(=O)oc6)CC[C@]45O)[C@@]3(C)CC2)[C@H](O)[C@H](O)[C@H]1O` [proscillaridin A], for which the “concentration that inhibits the transcriptional activity of HIF-1” value at HIF-1 is given as “nanomolar”. Besides, the “concentration that inhibits the transcriptional activity of HIF-2” value at HIF-2 was “nanomolar”.
